Measured values taken from patent US9302999B2, “Substituted triazoles as herbicides” (E. I. DU PONT DE NEMOURS AND COMPANY, priority 2012, dated 2016).
Read-outs that look alike come from different tables or passages of the source.

Experiments:
Assay type in all cases: in vivo
[1] = tested on: barnyardgrass (Echinochloa crus-galli); test: Test A pre-/postemergence: barnyardgrass; settings: Echinochloa crus-galli, 240 h; for pest or weed control at 125 g/ha: 125 g ai/ha; for pest or weed control at 500 g/ha: 500 g ai/ha
Summary of the method: (§1)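 Whole-plant greenhouse assay in loam/sand. Preemergence directed soil spray plus simultaneous postemergence spray (one- to two-leaf stage, 2–10 cm). Rated visually ~10 days later, 0 = no effect, 100 = complete control.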

[2] = tested on: morningglory (Ipomoea spp.); test: Test A pre-/postemergence: morningglory; settings: Ipomoea, 240 h; for pest or weed control at 125 g/ha: 125 g ai/ha; for pest or weed control at 500 g/ha: 500 g ai/ha
Summary of the method: as §1

[3] = tested on: pigweed (Amaranthus retroflexus); test: Test A pre-/postemergence: pigweed; settings: Amaranthus retroflexus, 240 h; for pest or weed control at 125 g/ha: 125 g ai/ha; for pest or weed control at 500 g/ha: 500 g ai/ha
Summary of the method: as §1

[4] = tested on: velvetleaf (Abutilon theophrasti); test: Test A pre-/postemergence: velvetleaf; settings: Abutilon theophrasti, 240 h; for pest or weed control at 125 g/ha: 125 g ai/ha; for pest or weed control at 500 g/ha: 500 g ai/ha
Summary of the method: as §1

[5] = tested on: wheat (Triticum aestivum); test: Test A pre-/postemergence: wheat; settings: Triticum aestivum, 240 h; for plant injury at 125 g/ha: 125 g ai/ha; for plant injury at 500 g/ha: 500 g ai/ha
Summary of the method: as §1

[6] = tested on: blackgrass (Alopecurus myosuroides); test: Test C pre-/postemergence: blackgrass
Summary of the method: (§2)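 Preemergence on seeds in loam/sand, postemergence on 2–18 cm (1–4-leaf) plants in peat-based medium; compounds in non-phytotoxic solvent with surfactant. After 13–15 days in greenhouse, visual rating versus controls, 0 (no effect) to 100 (complete control).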

[7] = tested on: ryegrass, Italian (Italian ryegrass, Lolium multiflorum); test: Test C pre-/postemergence: ryegrass, Italian
Summary of the method: as §2

corn (Zea mays) = test: Test C pre-/postemergence: corn
Summary of the method: as §2

[8] = tested on: lambsquarters (Chenopodium album); test: Test C pre-/postemergence: lambsquarters
Summary of the method: as §2

[9] = tested on: morningglory (Ipomoea coccinea); test: Test C pre-/postemergence: morningglory
Summary of the method: as §2

[10] = tested on: nutsedge, yellow (yellow nutsedge, Cyperus esculentus); test: Test C pre-/postemergence: nutsedge, yellow
Summary of the method: as §2

[11] = tested on: chickweed (common chickweed, Stellaria media); test: Test C postemergence: chickweed
Summary of the method: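 Pot-grown plants in peat/vermiculite medium sprayed postemergence at 2–18 cm height (1- to 4-leaf stage). Kept in greenhouse 13 to 15 days, then visually rated against untreated controls on a 0–100 scale (0 = no effect, 100 = complete control).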

[12] = Postemergence, 31 g ai/ha, scale 0 to 100 (0 no effect, 100 complete control)
[13] = Postemergence, 62 g ai/ha, scale 0 to 100 (0 no effect, 100 complete control)
[14] = Postemergence, 125 g ai/ha, scale 0 to 100, 0 no effect, 100 complete control
[15] = Postemergence, 250 g ai/ha, scale 0 to 100
[16] = Preemergence, 31 g ai/ha, scale of 0 to 100, 0 is no effect, 100 is complete control
[17] = Preemergence, 62 g ai/ha, scale 0 to 100, 0 no effect, 100 complete control
[18] = Preemergence, 125 g ai/ha, scale 0 to 100, 0 no effect, 100 complete control
[19] = Preemergence, 250 g ai/ha, scale 0 to 100, 0 no effect, 100 complete control
[20] = Preemergence, 62 g ai/ha, scale of 0 to 100, 0 is no effect, 100 is complete control

Cc1nn(-c2ccc(F)cc2)nc1Oc1ccnc(C(F)(F)F)c1 [Compound 129, 4-[[2-(4-fluorophenyl)-5-methyl-2H-1,2,3-triazol-4-yl]oxy]-2-(trifluoromethyl)pyridine]
pest or weed control at 125 g/ha ([1]; post-emergence, Postemergence, 0 to 100 scale, 0 is no effect, 100 is complete control, read-out: Barnyardgrass plant response rating): 90%
pest or weed control at 500 g/ha ([1]; post-emergence, Postemergence, visual rating on 0 to 100 scale (0 no effect, 100 complete control), approximately ten days, read-out: Barnyardgrass plant response rating): 90%
pest or weed control at 125 g/ha ([1]; pre-emergence, Preemergence, 0 to 100 scale where 0 is no effect and 100 is complete control, read-out: Plant response rating, Barnyardgrass): 100%
pest or weed control at 500 g/ha ([1]; pre-emergence, Preemergence, 0 to 100 scale (0 no effect, 100 complete control), read-out: Plant response rating, Barnyardgrass): 100%
pest or weed control at 125 g/ha ([2]; post-emergence, Postemergence, 0 to 100 scale, 0 is no effect, 100 is complete control, read-out: Morningglory plant response rating): 100%
pest or weed control at 500 g/ha ([2]; post-emergence, Postemergence, visual rating on 0 to 100 scale (0 no effect, 100 complete control), approximately ten days, read-out: Morningglory plant response rating): 100%
pest or weed control at 125 g/ha ([2]; pre-emergence, Preemergence, 0 to 100 scale where 0 is no effect and 100 is complete control, read-out: Plant response rating, Morningglory): 50%
pest or weed control at 500 g/ha ([2]; pre-emergence, Preemergence, 0 to 100 scale (0 no effect, 100 complete control), read-out: Plant response rating, Morningglory): 60%
pest or weed control at 125 g/ha ([3]; post-emergence, Postemergence, 0 to 100 scale, 0 is no effect, 100 is complete control, read-out: Pigweed plant response rating): 100%
pest or weed control at 500 g/ha ([3]; post-emergence, Postemergence, visual rating on 0 to 100 scale (0 no effect, 100 complete control), approximately ten days, read-out: Pigweed plant response rating): 100%
pest or weed control at 125 g/ha ([3]; pre-emergence, Preemergence, 0 to 100 scale where 0 is no effect and 100 is complete control, read-out: Plant response rating, Pigweed): 100%
pest or weed control at 500 g/ha ([3]; pre-emergence, Preemergence, 0 to 100 scale (0 no effect, 100 complete control), read-out: Plant response rating, Pigweed): 100%
pest or weed control at 125 g/ha ([4]; post-emergence, Postemergence, 0 to 100 scale, 0 is no effect, 100 is complete control, read-out: Velvetleaf plant response rating): 70%
pest or weed control at 500 g/ha ([4]; post-emergence, Postemergence, visual rating on 0 to 100 scale (0 no effect, 100 complete control), approximately ten days, read-out: Velvetleaf plant response rating): 100%
pest or weed control at 125 g/ha ([4]; pre-emergence, Preemergence, 0 to 100 scale where 0 is no effect and 100 is complete control, read-out: Plant response rating, Velvetleaf): 60%
pest or weed control at 500 g/ha ([4]; pre-emergence, Preemergence, 0 to 100 scale (0 no effect, 100 complete control), read-out: Plant response rating, Velvetleaf): 70%
plant injury at 125 g/ha ([5]; post-emergence, Postemergence, 0 to 100 scale, 0 is no effect, 100 is complete control, read-out: Wheat plant response rating): 20%
plant injury at 500 g/ha ([5]; post-emergence, Postemergence, visual rating on 0 to 100 scale (0 no effect, 100 complete control), approximately ten days, read-out: Wheat plant response rating): 30%
plant injury at 125 g/ha ([5]; pre-emergence, Preemergence, 0 to 100 scale where 0 is no effect and 100 is complete control, read-out: Plant response rating, Wheat): 10%
plant injury at 500 g/ha ([5]; pre-emergence, Preemergence, 0 to 100 scale (0 no effect, 100 complete control), read-out: Plant response rating, Wheat): 50%
Plant response rating, Blackgrass [6, 12]: 40
Plant response rating, Blackgrass [6, 13]: 60
Plant response rating, Blackgrass [6, 14]: 70
Plant response rating, Blackgrass [6, 15]: 80
Plant response rating, Blackgrass [6, 16]: 90
Plant response rating, Blackgrass [6, 17]: 90
Plant response rating, Blackgrass [6, 18]: 90
Plant response rating, Blackgrass [6, 19]: 90
Plant response rating, Ryegrass, Italian [7, 12]: 5
Plant response rating, Ryegrass, Italian [7, 13]: 15
Plant response rating, Ryegrass, Italian [7, 14]: 30
Plant response rating, Ryegrass, Italian [7, 15]: 60
Plant response rating, Ryegrass, Italian [7, 16]: 60
Plant response rating, Ryegrass, Italian [7, 20]: 90
Plant response rating, Ryegrass, Italian [7, 18]: 90
Plant response rating, Ryegrass, Italian [7, 19]: 95
Plant response rating, Corn (corn (Zea mays); [12]): 10
Plant response rating, Corn (corn (Zea mays); [13]): 15
Plant response rating, Corn (corn (Zea mays); [14]): 40
Plant response rating, Corn (corn (Zea mays); [15]): 65
Plant response rating, Corn (corn (Zea mays); [16]): 0
Plant response rating, Corn (corn (Zea mays); [17]): 10
Plant response rating, Corn (corn (Zea mays); [18]): 45
Plant response rating, Corn (corn (Zea mays); [19]): 65
Plant response rating, Lambsquarters [8, 12]: 98
Plant response rating, Lambsquarters [8, 13]: 98
Plant response rating, Lambsquarters [8, 14]: 98
Plant response rating, Lambsquarters [8, 15]: 100
Plant response rating, Lambsquarters [8, 16]: 95
Plant response rating, Lambsquarters [8, 20]: 95
Plant response rating, Lambsquarters [8, 18]: 98
Plant response rating, Lambsquarters [8, 19]: 100
Plant response rating, Morningglory [9, 12]: 50
Plant response rating, Morningglory [9, 13]: 55
Plant response rating, Morningglory [9, 14]: 65
Plant response rating, Morningglory [9, 15]: 75
Plant response rating, Morningglory [9, 16]: 0
Plant response rating, Morningglory [9, 20]: 20
Plant response rating, Morningglory [9, 18]: 60
Plant response rating, Morningglory [9, 19]: 65
Plant response rating, Nutsedge, Yellow [10, 12]: 0
Plant response rating, Nutsedge, Yellow [10, 13]: 0
Plant response rating, Nutsedge, Yellow [10, 14]: 0
Plant response rating, Nutsedge, Yellow [10, 15]: 0
Plant response rating, Nutsedge, Yellow [10, 16]: 0
Plant response rating, Nutsedge, Yellow [10, 20]: 0
Plant response rating, Nutsedge, Yellow [10, 18]: 0
Plant response rating, Nutsedge, Yellow [10, 19]: 5
Plant response rating, Chickweed ([11]; 31 g ai/ha, scale 0 to 100 (0 no effect, 100 complete control)): 15
Plant response rating, Chickweed ([11]; 62 g ai/ha, scale 0 to 100 (0 no effect, 100 complete control)): 45
Plant response rating, Chickweed ([11]; 125 g ai/ha, scale 0 to 100, 0 no effect, 100 complete control): 80
Plant response rating, Chickweed ([11]; 250 g ai/ha, scale 0 to 100): 98
